According to patent publication US20230407243A1, “GENETIC PLATFORM TO INVESTIGATE THE FUNCTIONS OF BACTERIAL DRUG EFFLUX PUMPS” (priority 2022, published 2023):
Values after ≈ are worked out from the molar mass of the structure shown. Like-named read-outs stand apart in the source and are kept apart here.

Legend:
Type in all cases: cell-based, Escherichia coli
K-12 (empty pCA24N) = test: MIC of strains harboring ASKA plasmids; details: Escherichia coli, K-12 empty pCA24N, 0.1 mM IPTG, read-out: MIC
ΔtolC (empty pCA24N) = test: microbe, parasite or virus in culture; details: Escherichia coli, ΔtolC empty pCA24N, 0.1 mM IPTG
EKO-35 (empty pCA24N) = test: microbe, parasite or virus in culture; details: Escherichia coli
EKO-35 wcaC (pCA24N) = test: MIC of strains harboring ASKA plasmids; details: EKO-35 wcaC, 0.1 mM IPTG
EKO-35 acrBD408A = tested on: EKO-35 acrBD408A
Procedure, shortened: (§1)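 Interaction of PAβN or NMP with antibiotics is scored as FICI = CA/MICA + CB/MICB, from MICs (no growth, OD600) in MHB II checkerboard microdilution following CLSI. Solvent controls accompany every plate.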

EKO-35 = tested on: EKO-35
Procedure, shortened: as §1

ΔtolC-Pore = tested on: ΔtolC-Pore
Procedure, shortened: as §1

ΔtolC = tested on: ΔtolC
Procedure, shortened: as §1

[1] = tested on: EKO-35 porinated strain expressing acrB; test: Checkerboard synergy (FICI), porinated strain
Procedure, shortened: as §1

[2] = tested on: EKO-35-Pore acrBD408A (functionally inactive AcrB variant); test: Checkerboard synergy (FICI), porinated strain
Procedure, shortened: as §1

EKO-35-Pore = test: Checkerboard synergy (FICI), porinated strain
Procedure, shortened: as §1

wild-type K-12-Pore = test: Checkerboard synergy (FICI), porinated strain
Procedure, shortened: as §1

[3] = EKO-35 acrBD408A, PAβN + antibiotic
[4] = strain EKO-35 acrBD408A, NMP + antibiotic
[5] = strain EKO-35, NMP + antibiotic
[6] = strain ΔtolC Pore, NMP + antibiotic
[7] = EKO-35 acrB Pore, NMP + antibiotic
[8] = strain EKO-35 acrB Pore, NMP + antibiotic
[9] = strain EKO-35 acrBD408A Pore, NMP + antibiotic
[10] = strain EKO-35 Pore, NMP + antibiotic
[11] = strain K-12 Pore, NMP + antibiotic

**Q.** Which results are given for `COc1cc(Cc2cnc(N)nc2N)cc(OC)c1OC` [trimethoprim]?
**A.** MIC (K-12 (empty pCA24N); Chlor + (25 μg/mL chloramphenicol)): 0.781 µg/mL; MIC (K-12 (empty pCA24N); Chlor −): 0.781 µg/mL; MIC (ΔtolC (empty pCA24N); Chlor +): 1.56 µg/mL (≈ 5.37 µM); MIC (ΔtolC (empty pCA24N); Chlor −): 0.195 µg/mL (≈ 0.672 µM); MIC (EKO-35 (empty pCA24N)): 0.391 µg/mL (≈ 1.35 µM); MIC (EKO-35 wcaC (pCA24N); Chlor + (4 μg/mL)): 0.781 µg/mL; MIC (EKO-35 wcaC (pCA24N); Escherichia coli, Chlor −, read-out: MIC): 0.781 µg/mL

**Q.** What does the source list for `Cc1onc(-c2ccccc2)c1C(=O)N[C@@H]1C(=O)N2[C@@H]1SC(C)(C)[C@@H]2C(=O)O` [oxacillin]?
**A.** FICI (EKO-35 acrBD408A; EKO-35 acrBD408A, NMP + antibiotic): 2.000; Effect (EKO-35 acrBD408A; [3]): Synergistic; FICI (EKO-35 acrBD408A; [3]): 0.185; MICb Alone (EKO-35 acrBD408A; EKO-35 acrBD408A, antibiotic alone (PAβN checkerboard)): 1 µg/mL; MICb Combined (EKO-35 acrBD408A; EKO-35 acrBD408A, antibiotic in combination with PAβN): 0.06 µg/mL; Effect (EKO-35 acrBD408A; [4]): — (indifferent (FICI >1.0)); FICI (EKO-35 acrBD408A; [4]): 2.000; MICb Alone (EKO-35 acrBD408A; strain EKO-35 acrBD408A, antibiotic alone): 0.13 µg/mL; MICb Combined (EKO-35 acrBD408A; strain EKO-35 acrBD408A, antibiotic in combination with NMP): 0.13 µg/mL; Effect (EKO-35; EKO-35, NMP + antibiotic): Additive; FICI (EKO-35; EKO-35, NMP + antibiotic): 0.510; Effect (EKO-35; EKO-35, PAβN + antibiotic): Synergistic; FICI (EKO-35; EKO-35, PAβN + antibiotic): 0.323; MICb Alone (EKO-35; EKO-35, antibiotic alone (PAβN checkerboard)): 0.5 µg/mL; MICb Combined (EKO-35; EKO-35, antibiotic in combination with PAβN): 0.13 µg/mL; interaction of PAβN in combination with the labelled antibiotic (FICI) (EKO-35; efflux-deficient strains EKO-35, EKO-35 acrBD408A, ΔtolC): synergized; Effect (EKO-35; [5]): Additive (additive (FICI >0.5-1.0)); FICI (EKO-35; [5]): 0.510; MICb Alone (EKO-35; strain EKO-35, antibiotic alone): 0.5 µg/mL; MICb Combined (EKO-35; strain EKO-35, antibiotic in combination with NMP): 0.13 µg/mL; Effect (ΔtolC-Pore; [6]): Additive (additive (FICI >0.5-1.0)); FICI (ΔtolC-Pore; [6]): 0.531; MICb Alone (ΔtolC-Pore; strain ΔtolC Pore, antibiotic alone): 1 µg/mL; MICb Combined (ΔtolC-Pore; strain ΔtolC Pore, antibiotic in combination with NMP): 0.5 µg/mL; Effect (ΔtolC-Pore; ΔtolC Pore, NMP + antibiotic): Additive; FICI (ΔtolC-Pore; ΔtolC Pore, NMP + antibiotic): 0.531; Effect (ΔtolC-Pore; ΔtolC Pore, PAβN + antibiotic): Additive; FICI (ΔtolC-Pore; ΔtolC Pore, PAβN + antibiotic): 0.740; MICb Alone (ΔtolC-Pore; ΔtolC Pore, antibiotic alone (PAβN checkerboard)): 0.25 µg/mL; MICb Combined (ΔtolC-Pore; ΔtolC Pore, antibiotic in combination with PAβN): 0.06 µg/mL; Effect (ΔtolC; strain ΔtolC, NMP + antibiotic): Additive (additive (FICI >0.5-1.0)); FICI (ΔtolC; strain ΔtolC, NMP + antibiotic): 0.531; MICb Alone (ΔtolC; strain ΔtolC, antibiotic alone): 1 µg/mL; MICb Combined (ΔtolC; strain ΔtolC, antibiotic in combination with NMP): 0.5 µg/mL; Effect (ΔtolC; ΔtolC, NMP + antibiotic): Additive; FICI (ΔtolC; ΔtolC, NMP + antibiotic): 0.531; Effect (ΔtolC; ΔtolC, PAβN + antibiotic): Synergistic; FICI (ΔtolC; ΔtolC, PAβN + antibiotic): 0.313; MICb Alone (ΔtolC; ΔtolC, antibiotic alone (PAβN checkerboard)): 1 µg/mL; MICb Combined (ΔtolC; ΔtolC, antibiotic in combination with PAβN): 0.25 µg/mL; Effect [1, 7]: Synergistic; FICI [1, 7]: 0.500; Effect ([1]; EKO-35 acrB Pore, PAβN + antibiotic): Synergistic; MICb Combined ([1]; EKO-35 acrB Pore, antibiotic in combination with PAβN): 16 µg/mL; potentiation of the labelled compound by NMP ([1]; porinated strain producing AcrB): enhancing the activity; Effect [1, 8]: Synergistic (Synergy (FICI ≤0.5)); FICI [1, 8]: 0.500; MICb Alone ([1]; strain EKO-35 acrB Pore, antibiotic alone): 64 µg/mL; MICb Combined ([1]; strain EKO-35 acrB Pore, antibiotic in combination with NMP): 16 µg/mL; FICI ([2]; EKO-35 acrBD408A Pore, NMP + antibiotic): 2.000; FICI ([2]; EKO-35 acrBD408A Pore, PAβN + antibiotic): 1.020; MICb Alone ([2]; EKO-35 acrBD408A Pore, antibiotic alone (PAβN checkerboard)): 0.25 µg/mL; MICb Combined ([2]; EKO-35 acrBD408A Pore, antibiotic in combination with PAβN): 0.13 µg/mL; Effect [2, 9]: — (indifferent (FICI >1.0)); FICI [2, 9]: 2.000; MICb Alone ([2]; strain EKO-35 acrBD408A Pore, antibiotic alone): 0.13 µg/mL; MICb Combined ([2]; strain EKO-35 acrBD408A Pore, antibiotic in combination with NMP): 0.13 µg/mL; Effect (EKO-35-Pore; EKO-35 Pore, NMP + antibiotic): Additive; FICI (EKO-35-Pore; EKO-35 Pore, NMP + antibiotic): 0.750; FICI (EKO-35-Pore; EKO-35 Pore, PAβN + antibiotic): 1.020; MICb Alone (EKO-35-Pore; EKO-35 Pore, antibiotic alone (PAβN checkerboard)): 0.25 µg/mL; MICb Combined (EKO-35-Pore; EKO-35 Pore, antibiotic in combination with PAβN): 0.13 µg/mL; interaction of PAβN in combination with the labelled antibiotic (FICI) (EKO-35-Pore; porinated efflux-deficient strains): no longer synergistic; Effect (EKO-35-Pore; [10]): Additive (additive (FICI >0.5-1.0)); FICI (EKO-35-Pore; [10]): 0.750; MICb Alone (EKO-35-Pore; strain EKO-35 Pore, antibiotic alone): 0.5 µg/mL; MICb Combined (EKO-35-Pore; strain EKO-35 Pore, antibiotic in combination with NMP): 0.25 µg/mL; Effect (wild-type K-12-Pore; K-12 Pore, NMP + antibiotic): Synergistic; FICI (wild-type K-12-Pore; K-12 Pore, NMP + antibiotic): 0.266; Effect (wild-type K-12-Pore; K-12 Pore, PAβN + antibiotic): Additive; FICI (wild-type K-12-Pore; K-12 Pore, PAβN + antibiotic): 0.750; MICb Alone (wild-type K-12-Pore; K-12 Pore, antibiotic alone (PAβN checkerboard)): 32 µg/mL; MICb Combined (wild-type K-12-Pore; K-12 Pore, antibiotic in combination with PAβN): 16 µg/mL; Effect (wild-type K-12-Pore; [11]): Synergistic (Synergy (FICI ≤0.5)); FICI (wild-type K-12-Pore; [11]): 0.266; MICb Alone (wild-type K-12-Pore; strain K-12 Pore, antibiotic alone): 64 µg/mL; MICb Combined (wild-type K-12-Pore; strain K-12 Pore, antibiotic in combination with NMP): 16 µg/mL
